# pIC50: −log10 of the molar value.
# Target: BTK (Homo sapiens (Human), UniProt Q06187)
# Test: Btk kinase assay (HTRF)
# Format: biochemical
# Conditions: [ATP]=80 μM, BTK=3.4 nM; read-out: BTK Inhibition
# Outline: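 HTRF kinase read-out (665/615 nm ratio, excitation 330 nm) after EDTA quench and 1 h detection incubation. Reaction: 3.4 nM BTK, ATP 80 μM, peptide substrate 1 μM, compound, HEPES pH 7.0 buffer, 1 h; IC50 derived using uninhibited and enzyme-free controls.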
# Sequence of BTK (Q06187 whole entry, species assumed): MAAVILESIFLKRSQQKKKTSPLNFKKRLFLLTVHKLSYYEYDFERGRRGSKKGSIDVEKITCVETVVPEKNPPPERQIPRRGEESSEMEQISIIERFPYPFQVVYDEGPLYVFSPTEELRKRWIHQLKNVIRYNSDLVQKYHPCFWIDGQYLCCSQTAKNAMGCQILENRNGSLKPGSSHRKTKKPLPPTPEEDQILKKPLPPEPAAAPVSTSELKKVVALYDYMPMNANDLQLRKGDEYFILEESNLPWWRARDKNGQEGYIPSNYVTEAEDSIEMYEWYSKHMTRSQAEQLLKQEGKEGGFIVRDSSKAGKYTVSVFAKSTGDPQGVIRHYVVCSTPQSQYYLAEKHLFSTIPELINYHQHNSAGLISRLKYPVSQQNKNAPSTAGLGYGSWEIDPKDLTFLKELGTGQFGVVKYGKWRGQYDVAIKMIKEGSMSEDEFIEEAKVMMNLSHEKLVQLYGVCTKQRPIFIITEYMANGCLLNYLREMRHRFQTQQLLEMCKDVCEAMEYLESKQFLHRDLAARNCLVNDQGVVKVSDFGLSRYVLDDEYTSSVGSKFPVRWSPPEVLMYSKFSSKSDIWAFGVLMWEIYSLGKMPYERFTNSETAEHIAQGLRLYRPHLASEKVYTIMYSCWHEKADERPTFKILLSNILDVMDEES
row,Structure (SMILES),pIC50
1,"C=CC(=O)N1CC[C@@H](n2c(=O)n(-c3ccc(Oc4ccc(OC)cc4)c(Cl)c3)c3cnccc32)C1 [Example 42, (R)-1-(1-acryloylpyrrolidin-3-yl)-3-(3-chloro-4-(4-methoxyphenoxy)phenyl)-1H-imidazo[4,5-c]pyridine-2(3H)-one]",7.00 to 8.00
2,"C=CC(=O)Nc1cccc(-n2c(=O)n(-c3ccc(Oc4ccccc4)cc3)c3ccncc32)c1 [Example 121, N-(3-(2-oxo-1-(4-phenoxyphenyl)-1H-imidazo[4,5-c]pyridin-3(2H)-yl)phenyl)acrylamide]",6.00 to 7.00
3,"C=CC(=O)N1CC[C@@H](n2c(=O)n(-c3ccc(Oc4ccc(C(F)(F)F)cc4)c(Cl)c3)c3cnccc32)C1 [Example 43, (R)-1-(1-acryloylpyrrolidin-3-yl)-3-(3-chloro-4-(4-(trifluoromethyl)phenoxy)phenyl)-1H-imidazo[4,5-c]pyridin-2(3H)-one]",6.00 to 7.00
4,"C=CC(=O)Nc1cccc(-n2c(=O)n(-c3ccc(Oc4ccc(C(F)(F)F)cc4)c(Cl)c3)c3cnccc32)c1 [Example 111, N-(3-(3-(3-chloro-4-(4-(trifluoromethyl)phenoxy)phenyl)-2-oxo-2,3-dihydro-1H-imidazo[4,5-c]pyridin-1-yl)phenyl)acrylamide]",5.00 to 6.00
5,"C=CC(=O)N1CC[C@@H](n2c(=O)n(-c3cccc(Oc4cccc(OC5CC5)c4)c3)c3cnccc32)C1 [Example 56, (R)-1-(1-acryloylpyrrolidin-3-yl)-3-(3-(3-cyclopropoxyphenoxy)phenyl)-1H-imidazo[4,5-c]pyridin-2(3H)-one]",7.00 to 8.00
6,"C=CC(=O)N1CCC[C@@H](n2c(=O)n(-c3ccc(Oc4cccc(OC(C)C)c4)cc3)c3cnccc32)C1 [Example 14, (R)-1-(1-acryloylpiperidin-3-yl)-3-(4-(3-isopropoxyphenoxy)phenyl)-1H-imidazo[4,5-c]pyridin-2(3H)-one]",7.00 to 8.00
7,"C=CC(=O)Nc1cccc(-n2c(=O)n(-c3ccc(Oc4ccc(OC)cc4)cc3)c3cnccc32)c1 [Example 80, N-(3-(3-(4-(4-methoxyphenoxy)phenyl)-2-oxo-2,3-dihydro-1H-imidazo[4,5-c]pyridin-1-yl)phenyl)acrylamide]",6.00 to 7.00
8,"C=CC(=O)N1CCC[C@@H](n2c(=O)n(-c3ccc(Oc4cccc(C)c4)c(Cl)c3)c3cnccc32)C1 [Example 108, (R)-1-(1-acryloylpiperidin-3-yl)-3-(3-chloro-4-(m-tolyloxy)phenyl)-1H-imidazo[4,5-c]pyridin-2(3H)-one]",7.00 to 8.00
9,"C=C(C)C(=O)N1CC[C@@H](n2c(=O)n(-c3ccc(Oc4ccccc4)cc3)c3cnccc32)C1 [Example 28, (R)-1-(1-methacryloylpyrrolidin-3-yl)-3-(4-phenoxyphenyl)-1H-imidazo[4,5-c]pyridin-2(3H)-one]",5.00 to 6.00
10,"C=CC(=O)Nc1cccc(-n2c(=O)n(-c3ccc(Oc4cccc(C)c4)c(C)c3)c3cnccc32)c1 [Example 47, N-(3-(3-(3-methyl-4-(m-tolyloxy)phenyl)-2-oxo-2,3-dihydro-1H-imidazo[4,5-c]pyridin-1-yl)phenyl) acrylamide]",5.00 to 6.00
11,"C=CC(=O)N1CC[C@@H](n2c(=O)n(-c3cccc(Oc4ccc(C)cc4)c3)c3cnccc32)C1 [Example 16, (R)-1-(1-acryloylpyrrolidin-3-yl)-3-(3-(p-tolyloxy)phenyl)-1H-imidazo[4,5-c]pyridin-2(3H)-one]",7.00 to 8.00
12,"C=CC(=O)N1CC[C@@H](n2c(=O)n(-c3ccc(Oc4ccc(F)cc4)cc3)c3cnccc32)C1 [Example 81, (R)-1-(1-acryloylpyrrolidin-3-yl)-3-(4-(4-fluorophenoxy)phenyl)-1H-imidazo[4,5-c]pyridin-2(3H)-one]",6.00 to 7.00
13,"C=CC(=O)N1CC[C@@H](n2c(=O)n(-c3ccc(Oc4ccccc4C)cc3)c3cnccc32)C1 [Example 83, (R)-1-(1-acryloylpyrrolidin-3-yl)-3-(4-(o-tolyloxy)phenyl)-1H-imidazo[4,5-c]pyridin-2(3H)-one]",7.00 to 8.00
14,"C=CC(=O)N1CCC(Cn2c(=O)n(-c3ccc(Oc4ccccc4)cc3)c3cnccc32)CC1 [Example 15, 1-((1-acryloylpiperidin-4-yl)methyl)-3-(4-phenoxyphenyl)-1H-imidazo[4,5-c]pyridin-2(3H)-one]",6.00 to 7.00
15,"C=CC(=O)N1CC[C@@H](n2c(=O)n(-c3ccc(Oc4cccnc4)cc3)c3cnccc32)C1 [Example 68, (R)-1-(1-acryloylpyrrolidin-3-yl)-3-(4-(pyridin-3-yloxy)phenyl)-1H-imidazo[4,5-c]pyridin-2(3H)-one]",6.00 to 7.00

# The next lines start with the values.
row,pIC50,Structure (SMILES)
1,6.00 to 7.00,"CC#CC(=O)N1CCC[C@@H]1Cn1c(=O)n(-c2ccc(Oc3cccc(OC)c3F)cc2)c2cncc(C)c21 [Example 169, (R)-1-((1-(but-2-ynoyl)pyrrolidin-2-yl)methyl)-3-(4-(2-fluoro-3-methoxyphenoxy)phenyl)-7-methyl-1H-imidazo[4,5-c]pyridin-2(3H)-one]"
2,6.00 to 7.00,"C=CC(=O)Nc1cccc(-n2c(=O)n(-c3ccc(Oc4cc(F)cc(F)c4)cc3)c3cnccc32)c1 [Example 127, N-(3-(3-(4-(3,5-difluorophenoxy)phenyl)-2-oxo-2,3-dihydro-1H-imidazo[4,5-c]pyridin-1-yl)phenyl)acrylamide]"
3,6.00 to 7.00,"C=CC(=O)N1CC[C@@H](n2c(=O)n(-c3ccc(OCc4cccc(C(F)(F)F)c4)cc3)c3cnccc32)C1 [Example 211, (R)-1-(1-acryloylpyrrolidin-3-yl)-3-(4-((3-(trifluoromethyl)benzyl)oxy)phenyl)-1H-imidazo[4,5-c]pyridin-2(3H)-one]"
4,5.00 to 6.00,"C=CC(=O)Nc1cccc(-n2c(=O)n(-c3ccc(C(=O)Nc4ccccc4)cc3)c3cnccc32)c1 [Example 254, 4-(1-(3-acrylamidophenyl)-2-oxo-1H-imidazo[4,5-c]pyridin-3(2H)-yl)-N-phenylbenzamide]"
5,6.00 to 7.00,"C=CC(=O)Nc1cccc(-n2c(=O)n(-c3ccc(NC(=O)c4cccc(Cl)c4)cc3)c3cnccc32)c1 [Example 259, N-(4-(1-(3-acrylamidophenyl)-2-oxo-1H-imidazo[4,5-c]pyridin-3(2H)-yl)phenyl)-3-chlorobenzamide]"
6,6.00 to 7.00,"C=CC(=O)Nc1cccc(-n2c(=O)n(-c3ccc(NC(=O)c4ccc(OC)cc4)cc3)c3cnccc32)c1 [Example 264, N-(4-(1-(3-acrylamidophenyl)-2-oxo-1H-imidazo[4,5-c]pyridin-3(2H)-yl)phenyl)-4-methoxybenzamidee]"
7,7.00 to 8.00,"C=CC(=O)N1CC[C@@H](n2c(=O)n(-c3ccc(Oc4cccc(C(C)C)c4)cc3)c3cnccc32)C1 [Example 153, (R)-1-(1-acryloylpyrrolidin-3-yl)-3-(4-(3-isopropylphenoxy)phenyl)-1H-imidazo[4,5-c]pyridin-2(3H)-one]"
8,7.00 to 8.00,"C=CC(=O)Nc1cccc(-n2c(=O)n(-c3ccc(Oc4cccc(F)c4OC)cc3)c3cnccc32)c1 [Example 136, N-(3-(3-(4-(3-fluoro-2-methoxyphenoxy)phenyl)-2-oxo-2,3-dihydro-1H-imidazo[4,5-c]pyridin-1-yl)phenyl)acrylamide]"
9,6.00 to 7.00,"C=CC(=O)Nc1cccc(-n2c(=O)n(-c3ccc(NC(=O)c4ccccc4)cc3)c3cnccc32)c1 [Example 261, N-(4-(1-(3-acrylamidophenyl)-2-oxo-1H-imidazo[4,5-c]pyridin-3(2H)-yl)phenyl)benzamide]"

# From patent US10358446B2, “Bruton's tyrosine kinase inhibitors” (Zibo Biopolar Changsheng Pharmaceutical Co. Ltd., priority 2015, dated 2019)
